Results published in article PMC5775428, “Towards an experimental classification system for membrane active peptides” (Scientific Reports, 2018).
Like-named read-outs stand apart in the source and are kept apart here.

Key:
Bacillus cereus = test system: Bacillus cereus
Method: (§1) Antimicrobial activity was tested against three categories of human and plant pathogenic microorganisms: Gram-positive (Bacillus subtilis, Bacillus cereus, Staphylococcus aureus), Gram-negative (Escherichia coli, Pseudomonas aeruginosa, Erwinia carotovora, Pseudomonas syringae pv. tabaci, Xanthomonas campestris pv. citri) and yeasts (Candida albicans, Cryptococcus neoformans), as previously reported. […] The full list of peptide MICs was published in an accompanying paper, and is available in the current publication as supplementary dataset (Supplementary dataset 01).
(§2) The determination of the minimum inhibitory concentration (MIC) of peptides was performed as described in “Encrypted Antimicrobial Peptides from Plant Proteins”[7]. Briefly, MICs were determined following protocols M7-A10 and M27-A3 from Clinical & Laboratory Standards Institute (CLSI) for bacteria and yeasts, respectively. Different concentrations of IAPs (0.5 to 256 μM) were tested against several microorganisms in a final volume of 100 µL. Three biological repetitions, with 2 technical replicates each, were performed for each test, on polystyrene flat-bottom 96 wells microplates. The minimum inhibitory concentration (MIC) was defined as the concentration at which no cells were detected when visualized by optical microscopy. Please refer to the literature[7] for further details of the microbiological assays.

Bacillus subtilis = settings: Bacillus subtilis; for Minimum inhibitory concentration, Average: average of triplicates
Method: as §1, §2

Candida albicans = settings: Candida albicans; for Minimum inhibitory concentration, Average: average of triplicates
Method: as §1, §2

Cryptococcus neoformans = settings: Cryptococcus neoformans; for Minimum inhibitory concentration, Average: average of triplicates
Method: as §1, §2

Erwinia carotovora = settings: Erwinia carotovora; for Minimum inhibitory concentration, Average: average of triplicates
Method: as §1, §2

Escherichia coli = settings: Escherichia coli; for Minimum inhibitory concentration, Average: average of triplicates
Method: as §1, §2

Pseudomonas aeruginosa = test system: Pseudomonas aeruginosa
Method: as §1, §2

[1] = test system: Pseudomonas syringae pv. tabaci; settings: Pseudomonas syringae pv. tabaci; for Minimum inhibitory concentration, Average: average of triplicates
Method: as §1, §2

Staphylococcus aureus = settings: Staphylococcus aureus; for Minimum inhibitory concentration, Average: average of triplicates
Method: as §1, §2

Xanthomonas campestris = settings: for Minimum inhibitory concentration, Average: average of triplicates
Method: as §1, §2

[2] = Bacillus cereus, CLSI M7-A10, triplicate 1
[3] = Bacillus cereus, average of triplicates
[4] = CLSI M27-A3, 0.5 to 256 μM tested, triplicate 1, also published in ref 7
[5] = Pseudomonas aeruginosa, CLSI M7-A10, triplicate 1
[6] = Pseudomonas aeruginosa, average of triplicates
[7] = Pseudomonas aeruginosa, triplicate 2
[8] = Pseudomonas aeruginosa, triplicate 3

Row | Sequence | Minimum inhibitory concentration (Bacillus subtilis; CLSI M7-A10, triplicate 1) | Minimum inhibitory concentration, Average (Bacillus subtilis) | Minimum inhibitory concentration (Bacillus subtilis; triplicate 2) | Minimum inhibitory concentration (Bacillus subtilis; triplicate 3) | Minimum inhibitory concentration, Average (Candida albicans) | Minimum inhibitory concentration (Candida albicans; triplicate 2) | Minimum inhibitory concentration (Candida albicans; triplicate 3) | Minimum inhibitory concentration (Cryptococcus neoformans; CLSI M27-A3, triplicate 1) | Minimum inhibitory concentration, Average (Cryptococcus neoformans) | Minimum inhibitory concentration (Cryptococcus neoformans; triplicate 2) | Minimum inhibitory concentration (Cryptococcus neoformans; triplicate 3) | Minimum inhibitory concentration (Erwinia carotovora; CLSI M7-A10, triplicate 1) | Minimum inhibitory concentration, Average (Erwinia carotovora) | Minimum inhibitory concentration (Erwinia carotovora; triplicate 2) | Minimum inhibitory concentration (Erwinia carotovora; triplicate 3) | Minimum inhibitory concentration (Escherichia coli; CLSI M7-A10, triplicate 1) | Minimum inhibitory concentration, Average (Escherichia coli) | Minimum inhibitory concentration (Escherichia coli; triplicate 2) | Minimum inhibitory concentration (Escherichia coli; triplicate 3) | Minimum inhibitory concentration ([1]; CLSI M7-A10, triplicate 1) | further results
1 | GSLHGFMYRYLKNMVLNLF [Cs01] | 8 µM | 8.0 µM | 8 µM | 8 µM | 2.7 µM | 2 µM | 4 µM | 8 µM | 8.0 µM | 8 µM | 8 µM | 128 µM | 128.0 µM | 128 µM | 128 µM | 32 µM | 32.0 µM | 32 µM | 32 µM | 16 µM | Minimum inhibitory concentration (Bacillus cereus; [2]): 64 µM; Minimum inhibitory concentration, Average (Bacillus cereus; [3]): 64.0 µM; Minimum inhibitory concentration (Bacillus cereus; Bacillus cereus, triplicate 2): 64 µM; Minimum inhibitory concentration (Bacillus cereus; Bacillus cereus, triplicate 3): 64 µM; Minimum inhibitory concentration (Candida albicans; [4]): 2 µM; Minimum inhibitory concentration (Pseudomonas aeruginosa; [5]): 32 µM; Minimum inhibitory concentration, Average (Pseudomonas aeruginosa; [6]): 32.0 µM; Minimum inhibitory concentration (Pseudomonas aeruginosa; [7]): 32 µM; Minimum inhibitory concentration (Pseudomonas aeruginosa; [8]): 32 µM; Minimum inhibitory concentration, Average [1]: 16.0 µM; Minimum inhibitory concentration ([1]; triplicate 2): 16 µM; Minimum inhibitory concentration ([1]; triplicate 3): 16 µM; Minimum inhibitory concentration (Staphylococcus aureus; CLSI M7-A10, triplicate 1): 4 µM; Minimum inhibitory concentration, Average (Staphylococcus aureus): 4.0 µM; Minimum inhibitory concentration (Staphylococcus aureus; triplicate 2): 4 µM; Minimum inhibitory concentration (Staphylococcus aureus; triplicate 3): 4 µM; Minimum inhibitory concentration (Xanthomonas campestris; CLSI M7-A10, triplicate 1): 64 µM; Minimum inhibitory concentration, Average (Xanthomonas campestris): 64.0 µM; Minimum inhibitory concentration (Xanthomonas campestris; triplicate 2): 64 µM; Minimum inhibitory concentration (Xanthomonas campestris; triplicate 3): 64 µM
2 | FFGHIWHGARTLFRDVFA [Cs02] | 2 µM | 3.3 µM | 4 µM | 4 µM | 32.0 µM | 32 µM | 32 µM | 32 µM | 32.0 µM | 32 µM | 32 µM | 32 µM | 32.0 µM | 32 µM | 32 µM | 8 µM | 8.0 µM | 8 µM | 8 µM | 4 µM | Minimum inhibitory concentration (Bacillus cereus; [2]): 64 µM; Minimum inhibitory concentration, Average (Bacillus cereus; [3]): 64.0 µM; Minimum inhibitory concentration (Bacillus cereus; Bacillus cereus, triplicate 2): 64 µM; Minimum inhibitory concentration (Bacillus cereus; Bacillus cereus, triplicate 3): 64 µM; Minimum inhibitory concentration (Candida albicans; [4]): 32 µM; Minimum inhibitory concentration (Pseudomonas aeruginosa; [5]): 512 µM; Minimum inhibitory concentration, Average (Pseudomonas aeruginosa; [6]): 512.0 µM; Minimum inhibitory concentration (Pseudomonas aeruginosa; [7]): 512 µM; Minimum inhibitory concentration (Pseudomonas aeruginosa; [8]): 512 µM; Minimum inhibitory concentration, Average [1]: 4.0 µM; Minimum inhibitory concentration ([1]; triplicate 2): 4 µM; Minimum inhibitory concentration ([1]; triplicate 3): 4 µM; Minimum inhibitory concentration (Staphylococcus aureus; CLSI M7-A10, triplicate 1): 8 µM; Minimum inhibitory concentration, Average (Staphylococcus aureus): 8.0 µM; Minimum inhibitory concentration (Staphylococcus aureus; triplicate 2): 8 µM; Minimum inhibitory concentration (Staphylococcus aureus; triplicate 3): 8 µM; Minimum inhibitory concentration (Xanthomonas campestris; CLSI M7-A10, triplicate 1): 32 µM; Minimum inhibitory concentration, Average (Xanthomonas campestris): 32.0 µM; Minimum inhibitory concentration (Xanthomonas campestris; triplicate 2): 32 µM; Minimum inhibitory concentration (Xanthomonas campestris; triplicate 3): 32 µM
3 | FFYNVIKIYGNMAGRISK [Cs03] | 64 µM | 64.0 µM | 64 µM | 64 µM | 128.0 µM | 128 µM | 128 µM | 32 µM | 32.0 µM | 32 µM | 32 µM | 16 µM | 16.0 µM | 16 µM | 16 µM | 128 µM | 128.0 µM | 128 µM | 128 µM | 128 µM | Minimum inhibitory concentration (Bacillus cereus): 512 µM; Minimum inhibitory concentration, Average (Bacillus cereus): 512.0 µM; Minimum inhibitory concentration (Candida albicans; [4]): 128 µM; Minimum inhibitory concentration (Pseudomonas aeruginosa): 512 µM; Minimum inhibitory concentration, Average (Pseudomonas aeruginosa): 512.0 µM; Minimum inhibitory concentration, Average [1]: 128.0 µM; Minimum inhibitory concentration ([1]; triplicate 2): 128 µM; Minimum inhibitory concentration ([1]; triplicate 3): 128 µM; Minimum inhibitory concentration (Staphylococcus aureus; CLSI M7-A10, triplicate 1): 128 µM; Minimum inhibitory concentration, Average (Staphylococcus aureus): 128.0 µM; Minimum inhibitory concentration (Staphylococcus aureus; triplicate 2): 128 µM; Minimum inhibitory concentration (Staphylococcus aureus; triplicate 3): 128 µM; Minimum inhibitory concentration (Xanthomonas campestris; CLSI M7-A10, triplicate 1): 512 µM; Minimum inhibitory concentration, Average (Xanthomonas campestris): 512.0 µM; Minimum inhibitory concentration (Xanthomonas campestris; triplicate 2): 512 µM; Minimum inhibitory concentration (Xanthomonas campestris; triplicate 3): 512 µM
4 | IKLRNVLKYLFRIDVIKEDIL [Tc03] | 16 µM | 16.0 µM | 16 µM | 16 µM | 512.0 µM | 512 µM | 512 µM | 512 µM | 512.0 µM | 512 µM | 512 µM | 32 µM | 32.0 µM | 32 µM | 32 µM | 64 µM | 64.0 µM | 64 µM | 64 µM | 32 µM | Minimum inhibitory concentration (Bacillus cereus; [2]): 128 µM; Minimum inhibitory concentration, Average (Bacillus cereus; [3]): 128.0 µM; Minimum inhibitory concentration (Bacillus cereus; Bacillus cereus, triplicate 2): 128 µM; Minimum inhibitory concentration (Bacillus cereus; Bacillus cereus, triplicate 3): 128 µM; Minimum inhibitory concentration (Pseudomonas aeruginosa; [5]): 512 µM; Minimum inhibitory concentration, Average (Pseudomonas aeruginosa; [6]): 512.0 µM; Minimum inhibitory concentration (Pseudomonas aeruginosa; [7]): 512 µM; Minimum inhibitory concentration (Pseudomonas aeruginosa; [8]): 512 µM; Minimum inhibitory concentration, Average [1]: 32.0 µM; Minimum inhibitory concentration ([1]; triplicate 2): 32 µM; Minimum inhibitory concentration ([1]; triplicate 3): 32 µM; Minimum inhibitory concentration (Staphylococcus aureus; CLSI M7-A10, triplicate 1): 512 µM; Minimum inhibitory concentration, Average (Staphylococcus aureus): 512.0 µM; Minimum inhibitory concentration (Staphylococcus aureus; triplicate 2): 512 µM; Minimum inhibitory concentration (Staphylococcus aureus; triplicate 3): 512 µM; Minimum inhibitory concentration (Xanthomonas campestris; CLSI M7-A10, triplicate 1): 64 µM; Minimum inhibitory concentration, Average (Xanthomonas campestris): 64.0 µM; Minimum inhibitory concentration (Xanthomonas campestris; triplicate 2): 64 µM; Minimum inhibitory concentration (Xanthomonas campestris; triplicate 3): 64 µM
